Entries after “also recorded” stand apart in the source; their conditions may differ.
Assays:
pancreas of mice [1] = assay: Hardness (elastic modulus) of the mouse pancreas after treatment, hardness meter (Venustron); assay type: in vivo; settings: mouse pancreas treated with 1 mM of compound; for change in the hardness of the pancreas compared to the control: compared to control (PBS / untreated), result in words
Description: The measurement of the hardness according to the present invention is performed using a hardness meter, and measurement of the hardness of the pancreas is performed by measuring elastic modulus (EM) based on the Hooke's law and the Hertz's contact stress theory. The EM is a measure of the stiffness of an elastic material, and is expressed as the ratio of “the stress along the axis” and “the total strain along the axis within the range of the stress” by the Hooke's law.
(§1) More specifically, three mice were treated with 1 mM of each of the antibiotics shown above, and three mice were treated with phosphate buffered saline (PBS) as a control.
(1) Measurement of Hardness
In order to measure the resistance of the pancreas using a hardness meter, the elastic modulus (EM) of the dissected pancreas was measured using Venustron (Axiom, Koriyama, Japan) based on the Hooke's law and the Hertz's contract stress theory, and the resistance of the pancreas was calculated using the following equation: […]
(F, force; v, Poisson's ratio; t, variant of compression; r, the diameter of a rigid spherical probe that presses an object vertically)

pancreas of mice [2] = assay: Tension (suture-holding capacity) of the mouse pancreas after treatment, Newton dynamometer; assay type: in vivo; settings: mouse pancreas treated with 1 mM of compound; for change in the tension of the pancreas compared to the control: compared to control (PBS / untreated), result in words; for response vs control in vivo at 1000 µM: fold of control, read-out: increase of the tension of the pancreas compared to the control
Description: Specifically, it means a force which occurs in an organ in response to an external force exerted by stretching or pulling action. The measurement of the tension according to the present invention is performed using a dynamometer. More specifically, the tension is determined by measuring suture-holding capacity using a Newton dynamometer. At this time, the tension is calculated by adding the weight of the tissue.
as §1
(2) Measurement of Tensile
The tension of the pancreas was measured using a dynamometer. Specifically, a pancreatic fragment having a size of 1×1×1.5 cm was prepared, and then silk 4-0 suture was passed through the tissue to form a knob, and suture-holding capacity was measured using a Newton dynamometer. At this time, the tension was calculated by adding the weight of the tissue.

Row | SMILES | change in the hardness of the pancreas compared to the control (pancreas of mice [1]) | change in the tension of the pancreas compared to the control (pancreas of mice [2]) | response vs control in vivo at 1000 µM (pancreas of mice [2]) | increase of the hardness of the pancreas compared to the control (pancreas of mice [1]; fold of control)
1 | CC(C)(C)OC(=O)CCOC(=O)[C@@H]1N2C(=O)[C@@H](NC(=O)Cc3ccccc3)[C@H]2SC1(C)C [KRM-60077, 3-(tert-butoxy)-3-oxopropyl (2S,5R,6R)-3,3-dimethyl-7-oxo-6-(2-phenylacetamido)-4-thia-1-azabicyclo[3.2.0]heptane-2-carboxylate] | increased both the hardness and tension of the pancreas to significant levels | increased both the hardness and tension of the pancreas to significant levels | – | –
2 | C=CCOC(=O)[C@@H]1N2C(=O)[C@@H](NC(=O)Cc3ccccc3)[C@H]2SC1(C)C [KRM-60028, Allyl (2S,5R,6R)-3,3-dimethyl-7-oxo-6-(2-phenylacetamido)-4-thia-1-azabicyclo[3.2.0]heptane-2-carboxylate] | both the hardness and tension of the pancreas increased | both the hardness and tension of the pancreas increased | – | –
3 | O=C(O)c1cnc2cc(Cl)ccc2c1O [KRP-00001, 7-chloro-4-hydroxy-3-quinolinecarboxylic acid] | increased both the hardness and tension | increased both the hardness and tension | ≥ 150% | –
4 | CC(=O)N1CCN(c2ccc(OC[C@H]3CO[C@](Cn4ccnc4)(c4ccc(Cl)cc4Cl)O3)cc2)CC1 [KRM-60049, 1-(4-(4-(((2R,4S)-2-((1H-imidazol-1-yl)methyl)-2-(2,4-dichlorophenyl)-1,3-dioxolan-4-yl)methoxy)phenyl)piperazin-1-yl)ethanone, reference compound] | had the effects of increasing the tension and hardness; also recorded: increased both the hardness and tension of the pancreas to high levels | had the effects of increasing the tension and hardness; also recorded: increased both the hardness and tension of the pancreas to high levels | – | –
5 | Cc1cc(O)c2ccccc2n1 [KRP-00006, 4-hydroxy-2-methylquinoline] | increased both the hardness and tension | increased both the hardness and tension | – | –
6 | Oc1cc2ccccc2cn1 [KRP-00010, 3-hydroxyisoquinoline] | – | – | ~240% | –
7 | Oc1ccc2ncccc2c1 [KRP-00013, 6-hydroxyquinoline] | increased both the hardness and tension | increased both the hardness and tension | ≥ 150% | –
8 | CC1(C)S[C@@H]2[C@H](NC(=O)Cc3ccccc3)C(=O)N2[C@H]1C(=O)OCCCC#N [KRM-60030, 3-cyanopropyl (2S,5R,6R)-3,3-dimethyl-7-oxo-6-(2-phenylacetamido)-4-thia-1-azabicyclo[3.2.0]heptane-2-carboxylate] | both the hardness and tension of the pancreas increased | both the hardness and tension of the pancreas increased | 200% | 1.5 times
9 | CC1(C)S[C@@H]2[C@H](NC(=O)Cc3ccccc3)C(=O)N2[C@H]1C(=O)O.[K+] [KRM-60027, Potassium (2S,5R,6R)-3,3-dimethyl-7-oxo-6-(2-phenylacetamido)-4-thia-1-azabicyclo[3.2.0]heptane-2-carboxylate, reference compound] | – | significantly increasing the tension; also recorded: had the effects of increasing the tension and hardness; also recorded: increased the tension of the pancreas to a significant level; also recorded: excellent effect on an increase in the tension; also recorded: significant increase in the tension | – | –

From patent US11773109B2, “Composition for hardening soft tissue” (The Catholic University of Korea Industry—Academic …, priority 2016, dated 2023)
